Paper PMC12649225, “Machine Learning-Identified Potent Antimicrobial Peptides Against Multidrug-Resistant Bacteria and Skin Infections” (Antibiotics, 2025)
≈ marks a conversion by molar mass, not a printed value. Where two headings read alike, the source gives them in different places. No end group written: not given here.

Experiments:
[1] = test system: A. baumannii RUH875; assay type: cell-based
Protocol: (§1) The bacterial strains used in this study included S. aureus JAR060131 [54] and the MDR ESKAPE pathogens Enterococcus faecium LUH15122, S. aureus LUH14616, Klebsiella pneumoniae LUH15104, A. baumannii RUH875 [55], Pseudomonas aeruginosa LUH15103, Enterobacter cloacae LUH15114, and the colistin-resistant Escherichia coli LUH15117. Before each experiment, bacteria from frozen stocks were cultured at 37 °C for 18–24 h on sheep blood agar plates (BioMérieux, Marcy-l’Étoile, France). All strains were then cultured from colonies either in tryptic soy broth (TSB; Oxoid, Basingstoke, UK) for A. baumannii, S. aureus, and E. faecium, or in brain heart infusion broth (BHI; Oxoid) for K. pneumoniae, P. aeruginosa, E. cloacae, and E. coli at 37 °C with shaking at 120 rpm for 18–24 h. Subsequently, bacteria were cultured to mid-logarithmic phase in the media described above at 37 °C with shaking at 120 rpm for 3 h. Bacteria were then washed twice with PBS and diluted to the required inoculum suspension concentration in Roswell Park Memorial Institute (RPMI)-1640 medium containing 20 mM HEPES and L-glutamine but without sodium bicarbonate (Sigma-Aldrich; hereafter referred to as RPMI), based on optical density at 620 nm. RPMI was selected because it supports bacterial growth without impairing AMP activity.
(§2) Bactericidal activity was assessed as described by de Breij et al.. Briefly, mid-logarithmic phase bacterial cultures were diluted to a final concentration of 1 × 10^7 colony-forming units (CFU)/mL in RPMI. Then, 10 µL was added to a final volume of 100 µL in RPMI (final concentration: 1 × 10^6 CFU/mL). Cultures were exposed to peptides either in RPMI or RPMI supplemented with 50% (v/v) human plasma (hereafter referred to as 50% plasma), obtained from four healthy volunteers after informed consent, frozen after collection, and pooled (Sanquin, Amsterdam, The Netherlands). Assays were performed in duplicate using round-bottom polypropylene microtiter plates (Costar, Arlington, VA, USA) and repeated three times. In the initial screening phase (Table 1, Table 2 and Table S1), peptide solutions of 1, 10, and 100 μM (final concentration) were tested against A. baumannii RUH875 and S. aureus JAR060131 in RPMI and in 50% plasma. After this selection process, two lead candidates, their RI variants, and reference peptides were tested with a final concentration range of 0.12 to 120 µM (two-fold dilutions) in RPMI and in 50% plasma (Table 3). The peptides were also tested against ESKAPE pathogens, with Synthetic Antimicrobial and Antibiofilm Peptide (SAAP)-148 as a reference peptide (Table 4).RPMI or 50% plasma served as no-treatment controls. After 2 and 18 h of incubation at 37 °C with shaking at 120 rpm in a humidified environment, the numbers of viable bacteria were quantified. Bactericidal activity was expressed as the lethal concentration 99.9% (LC99.9), defined as the lowest peptide concentration that killed ≥99.9% of bacteria within 2 h (LC99.9_2h) or 18 h (LC99.9_18h) compared to the initial inoculum.

[2] = test system: S. aureus JAR060131; assay type: cell-based; conditions: for LC99.9 S. aureus JAR060131 50% Plasma 2 h / LC99.9 S. aureus JAR060131 RPMI 2 h: JAR060131, 2 h
Protocol: as §1, §2

[3] = test system: A. baumannii RUH875 biofilm; test: Biofilm killing; assay type: cell-based, Acinetobacter baumannii; conditions: for Concentration achieving significant biofilm killing of A. baumannii: at any treatment time (2 h, 24 h), tested up to 120 µM; for A. baumannii biofilm killing, 24 h treatment (in words): up to 120 µM
Protocol: (§3) Mid-logarithmic phase cultures of A. baumannii RUH875 or S. aureus JAR060131 were diluted to 1 × 10^8 CFU/mL in RPMI supplemented with 1% glucose. A total of 100 μL of each suspension was added to flat-bottom polystyrene 96-well microplates (Costar) and incubated under static conditions at 37 °C in a humidified atmosphere for 24 h to allow biofilm formation. After 24 h, planktonic bacteria were removed, and wells were carefully washed with 100 μL PBS [60]. […] Control samples were exposed to 100 μL of PBS only.
(§4) Biofilms were treated at 37 °C for either 2 or 24 h. […] Plates were sealed and sonicated for 5 min (Elmasonic, Singen, Germany; 45 kHz) at room temperature to dislodge adherent bacteria. […] Quantitative cultures were performed by plating serial 10-fold dilutions on sheep blood agar, and results were expressed as log10 CFU per well. The lower limit of detection was three CFU. Each condition was tested in six replicates.

[4] = test system: S. aureus JAR060131 biofilm; test: Biofilm killing; assay type: cell-based, Staphylococcus aureus; conditions: for S. aureus biofilm killing, 24 h treatment (in words): up to 120 µM; for S. aureus biofilm killing, 24 h treatment (in words) / Concentration giving ≥3-log reduction of S. aureus biofilm CFU within 24 h: 24 h treatment; for Concentration giving ≥3-log reduction of S. aureus biofilm CFU within 24 h: >3 log for BP2 and pexiganan
Protocol: as §3, §4

[5] = test system: BJ human skin fibroblast cells; test: LDH leakage assay (membrane integrity); conditions: lowest concentration causing >30% LDH leakage; BJ fibroblasts; 24 h; DMEM with 2% FBS; 0.05-60 µM
Protocol: (§5) BJ human skin fibroblast cells (ATCC CRL-2522; RRID: CVCL_3653; LGC Standards, Germany (September 2023)) were cultured in Dulbecco’s Modified Eagle Medium (DMEM; Gibco, Waltham, MA, USA) supplemented with 10% (v/v) foetal bovine serum (FBS; Sigma-Aldrich) and 1% (v/v) penicillin/streptomycin (pen/strep; Gibco). Cell suspensions (5 × 10^5 cells/mL) were seeded into 96-well plates (100 μL/well; Thermo Scientific, Waltham, MA, USA) and allowed to adhere for 24 h. Monolayers were then exposed to two-fold serial dilutions of GDST peptides, their RI variants, and reference peptides (final concentrations: 0.05 to 60 µM) in fresh DMEM with 2% (v/v) FBS for 24 h at 37 °C in a humidified atmosphere with 5% CO2.
(§6) Cell viability and membrane integrity were assessed using the water-soluble tetrazolium salt (WST-1; Roche, Basel, Switzerland) assay and the lactate dehydrogenase (LDH; Abcam, Cambridge, UK) assay, respectively, according to manufacturer instructions. Results were expressed as percentages of metabolic activity and LDH leakage relative to untreated control cells and the positive lysis control, respectively. The cytotoxic concentration was defined as the lowest peptide concentration causing <70% metabolic activity and >30% LDH leakage. All experiments were performed in triplicate.

[6] = test system: BJ human skin fibroblast cells; test: WST-1 metabolic activity assay (cell viability); conditions: lowest concentration causing <70% metabolic activity (WST-1); BJ fibroblasts; 24 h; DMEM with 2% FBS; 0.05-60 µM
Protocol: as §5, §6

[7] = test system: A. baumannii RUH875; test: microbe, parasite or virus in culture; assay type: cell-based, Acinetobacter baumannii; conditions: for MIC: Acinetobacter baumannii
Protocol: (§7) The potential for resistance development to GDST-038, GDST-045, and their RI variants was assessed as described by Habets and Brockhurst. Resistance development to the antibiotics rifampicin and ciprofloxacin (both from Sigma-Aldrich) was evaluated for comparison. Briefly, 10 μL of a mid-logarithmic phase culture of A. baumannii RUH875 or S. aureus JAR060131 was added to 90 μL of peptide (final concentrations: 0.23 to 120 μM) or antibiotic (final concentrations: 0.03 to 256 μg/mL) solution in RPMI, in 96-well polypropylene round-bottom plates (Costar). All incubations were performed in quadruplicate. Plates were sealed with breathable seals (Greiner) and incubated at 37 °C with shaking at 120 rpm in a humidified environment for 18 h (S. aureus) or 48 h (A. baumannii).
(§8) The minimum inhibitory concentration (MIC), defined as the lowest concentration that inhibited visible bacterial growth, was then determined. Subsequently, 2 μL from the 0.5-fold MIC condition was transferred to fresh medium containing a concentration series ranging from 0.5- to 8-fold the new MIC. This procedure was repeated over 22 consecutive passages to monitor resistance development.

[8] = test system: S. aureus JAR060131; test: microbe, parasite or virus in culture; assay type: cell-based, Staphylococcus aureus; conditions: Staphylococcus aureus
Protocol: as §7, §8

[9] = RPMI, 18 h, median of three independent experiments

Compound	LC99.9 A. baumannii RUH875 50% Plasma 2 h ([1]; RUH875, 2 h)	LC99.9 A. baumannii RUH875 RPMI 18 h ([1]; RUH875, 18 h)	LC99.9 S. aureus JAR060131 50% Plasma 2 h [2]	LC99.9 S. aureus JAR060131 RPMI 2 h [2]	LC99.9 S. aureus JAR060131 RPMI 18 h ([2]; JAR060131, 18 h)	Concentration achieving significant biofilm killing of A. baumannii [3]	S. aureus biofilm killing, 24 h treatment (in words) [4]	A. baumannii biofilm killing, 24 h treatment (in words) [3]	Concentration giving ≥3-log reduction of S. aureus biofilm CFU within 24 h [4]	Cytotoxicity LDH Leakage >30% [5]	Cytotoxicity Metabolic Activity <70% [6]	also measured
LRAMCIKWWSGKHPK [TC84, reference compound]	3.75 µM	3.75 µM	7.5 µM	7.5 µM	7.5 µM	> 120 µM	did not exhibit significant biofilm-killing effects	–	–	–	–	–
GIGKFLKKAKKFGKAFVKILKK-NH2 (C-terminus assumed) [Pexiganan, reference compound]	0.23 µM	0.47 µM	7.50 µM	0.47 µM	0.23 µM	–	–	not sustained after 24 h	≥ 30 µM	–	–	Concentration killing ≥3 log CFU of A. baumannii biofilm within 2 h ([3]; 24 h biofilm, 2 h treatment in PBS, 1.88-120 μM, vs untreated biofilm): ≥ 30 µM
CC[C@H](C)[C@H](NC(=O)[C@H](CCCCN)NC(=O)[C@H](CCC(=O)O)NC(=O)[C@H](CCCCN)NC(=O)[C@H](CO)NC(=O)[C@H](CCCCN)NC(=O)[C@H](CCCNC(=N)N)NC(=O)[C@H](Cc1ccccc1)NC(=O)[C@H](Cc1ccccc1)NC(=O)[C@H](CC(=O)O)NC(=O)CNC(=O)[C@H](CC(C)C)NC(=O)[C@@H](N)CC(C)C)C(=O)NCC(=O)N[C@@H](CCCCN)C(=O)N[C@@H](CCC(=O)O)C(=O)N[C@@H](Cc1ccccc1)C(=O)N[C@@H](CCCCN)C(=O)N[C@@H](CCCNC(=N)N)C(=O)N[C@H](C(=O)N[C@H](C(=O)N[C@@H](CCC(N)=O)C(=O)N[C@@H](CCCNC(=N)N)C(=O)N[C@H](C(=O)N[C@@H](CCCCN)C(=O)N[C@@H](CC(=O)O)C(=O)N[C@@H](Cc1ccccc1)C(=O)N[C@@H](CC(C)C)C(=O)N[C@@H](CCCNC(=N)N)C(=O)N[C@@H](CC(N)=O)C(=O)N[C@@H](CC(C)C)C(=O)N[C@H](C(=O)N1CCC[C@H]1C(=O)N[C@@H](CCCNC(=N)N)C(=O)N[C@H](C(=O)N[C@@H](CCC(=O)O)C(=O)N[C@@H](CO)C(=O)O)[C@@H](C)O)C(C)C)[C@@H](C)CC)C(C)C)[C@@H](C)CC [LL-37, reference compound]	–	–	–	–	–	> 120 µM	did not exhibit significant biofilm-killing effects	–	–	7.5 µM	15 µM	LC99.9 A. baumannii RUH875 50% Plasma 2 h ([1]; 50% plasma, 2 h, median of three independent experiments): 60 µM; LC99.9 A. baumannii RUH875 50% Plasma 18 h ([1]; 50% plasma, 18 h, median of three independent experiments): 60 µM; LC99.9 A. baumannii RUH875 RPMI 2 h ([1]; RPMI, 2 h, two-fold dilutions 0.12-120 µM, median of three independent experiments): 1.88 µM; LC99.9 A. baumannii RUH875 RPMI 18 h [1, 9]: 1.88 µM; LC99.9 S. aureus JAR060131 RPMI 18 h [2, 9]: > 120 µM
O=C(O)c1cn(C2CC2)c2cc(N3CCNCC3)c(F)cc2c1=O [ciprofloxacin, reference compound]	–	–	–	–	–	–	–	–	–	–	–	MIC ([7]; RUH875, read-out: MIC A. baumannii after 22 passages): 64 µg/mL (≈ 193 µM); MIC ([7]; RUH875, read-out: MIC A. baumannii before passaging): 0.5 µg/mL (≈ 1.51 µM); MIC increase in A. baumannii after 22 passages ([7]; relative to first passage): 128 fold
CO[C@H]1/C=C/O[C@@]2(C)Oc3c(C)c(O)c4c(O)c(c(/C=N/N5CCN(C)CC5)c(O)c4c3C2=O)NC(=O)/C(C)=C\C=C\[C@H](C)[C@H](O)[C@@H](C)[C@@H](O)[C@@H](C)[C@H](OC(C)=O)[C@@H]1C [rifampicin, reference compound]	–	–	–	–	–	–	–	–	–	–	–	MIC ([8]; JAR060131, read-out: MIC S. aureus after 22 passages): 4100 µg/mL (≈ 4980 µM); MIC ([8]; JAR060131, read-out: MIC S. aureus before passaging): 0.25 µg/mL (≈ 0.304 µM)
GKWKLFKKAFKKFLKILAC [BP2, reference compound]	–	–	–	–	–	–	–	complete eradication	≥ 30 µM	1.88 µM	0.47 µM	Concentration giving complete eradication of S. aureus biofilm within 24 h ([4]; 24 h biofilm, 24 h treatment in PBS): ≥ 60 µM
